Key:
MOLM-13 [1] = experiment: Induction of apoptosis in human MOLM13 cells assessed as viable cells at 1 nM after 48 hrs by Annexin V/propidium iodide staining based flow cytometry (reference value: 88.2%); assay type: functional; settings: MOLM-13, 48 h, read-out: Activity
MV4-11 [2] = experiment: Induction of apoptosis in human MV4-11 cells assessed as necrotic cells at 100 nM after 48 hrs by Annexin V/propidium iodide staining based flow cytometry (reference value: 0.06%); assay type: functional
[3] = Tmax in Sprague-Dawley rat at 5 mg/kg, po by LC-MS/MS analysis; assay type: ADME, organism-based; settings: in vivo
MV4-11 [4] = experiment: Antitumour activity against human MV4-11 cells xenografted in NOD/SCID mouse assessed as tumour growth inhibition at 10 mg/kg, po qd for 18 days measured every two days during compound dosing by caliper method relative to control; assay type: functional; settings: MV4-11, po, read-out: TGI
Homo sapiens = species: Homo sapiens; experiment: Inhibition of MAPK in human MOLM13 cells assessed as ratio of phosphorylated ERK to beta-actin level at 100 nM after 2 hrs by Western blot analysis relative to control; assay type: cell-based
MV4-11 [5] = experiment: Antitumour activity against human MV4-11 cells xenografted in NOD/SCID mouse assessed as tumour growth inhibition at 3 mg/kg, po qd for 14 days measured every two days during compound dosing by caliper method relative to control; assay type: functional; settings: MV4-11, po, read-out: TGI
[6] = target: Receptor-type tyrosine-protein kinase FLT3 (Homo sapiens, UniProt P36888, R834Q); experiment: Binding affinity to human partial length FLT3 R834Q mutant (V592 to Y969 residues) expressed in HEK293 cells measured after 1 hr by qPCR analysis; assay type: cell-based
MOLM-13 [7] = experiment: Antitumour activity against human MOLM13 cells xenografted in po dosed NOD/SCID mouse assessed as tumour growth inhibition administered daily for 10 days; assay type: functional, organism-based
[8] = target: Receptor-type tyrosine-protein kinase FLT3 (Homo sapiens) (UniProt P36888); experiment: Inhibition of FLT3 autophosphorylation in human MV4-11 cells assessed as ratio of phosphorylated FLT3 to beta-actin level at 30 nM after 2 hrs by Western blot analysis relative to control; assay type: cell-based
MOLM-13 [9] = experiment: Induction of apoptosis in human MOLM13 cells assessed as necrotic cells at 10 uM after 48 hrs by Annexin V/propidium iodide staining based flow cytometry (reference value: 0.29%); assay type: functional
[10] = target: Receptor-type tyrosine-protein kinase FLT3 (Homo sapiens, UniProt P36888, N841I); experiment: Binding affinity to human partial length FLT3 N841I mutant (V592 to Y969 residues) expressed in Escherichia coli after 1 hr by qPCR analysis
MV4-11 [11] = experiment: Induction of apoptosis in human MV4-11 cells assessed as early apoptotic cells at 1 nM after 48 hrs by Annexin V/propidium iodide staining based flow cytometry (reference value: 2.76%); assay type: functional
MV4-11 [12] = experiment: Induction of apoptosis in human MV4-11 cells assessed as late apoptotic cells at 100 nM after 48 hrs by Annexin V/propidium iodide staining based flow cytometry (reference value: 2.83%); assay type: functional
MV4-11 [13] = experiment: Cell cycle arrest in human MV4-11 cells assessed as accumulation at G0/G1 phase at 3 nM after 24 hrs by propidium iodide staining-based flow cytometric analysis (reference value: 48.76%); assay type: functional
[14] = target: Receptor-type tyrosine-protein kinase FLT3 (Homo sapiens, UniProt P36888, K663Q); experiment: Binding affinity to human partial length FLT3 K663Q mutant (V592 to Y969 residues) expressed in Escherichia coli after 1 hr by qPCR analysis
[15] = target: T1, Receptor-type tyrosine-protein kinase FLT3 (Homo sapiens, UniProt P36888)
T1 sequence (P36888 whole entry): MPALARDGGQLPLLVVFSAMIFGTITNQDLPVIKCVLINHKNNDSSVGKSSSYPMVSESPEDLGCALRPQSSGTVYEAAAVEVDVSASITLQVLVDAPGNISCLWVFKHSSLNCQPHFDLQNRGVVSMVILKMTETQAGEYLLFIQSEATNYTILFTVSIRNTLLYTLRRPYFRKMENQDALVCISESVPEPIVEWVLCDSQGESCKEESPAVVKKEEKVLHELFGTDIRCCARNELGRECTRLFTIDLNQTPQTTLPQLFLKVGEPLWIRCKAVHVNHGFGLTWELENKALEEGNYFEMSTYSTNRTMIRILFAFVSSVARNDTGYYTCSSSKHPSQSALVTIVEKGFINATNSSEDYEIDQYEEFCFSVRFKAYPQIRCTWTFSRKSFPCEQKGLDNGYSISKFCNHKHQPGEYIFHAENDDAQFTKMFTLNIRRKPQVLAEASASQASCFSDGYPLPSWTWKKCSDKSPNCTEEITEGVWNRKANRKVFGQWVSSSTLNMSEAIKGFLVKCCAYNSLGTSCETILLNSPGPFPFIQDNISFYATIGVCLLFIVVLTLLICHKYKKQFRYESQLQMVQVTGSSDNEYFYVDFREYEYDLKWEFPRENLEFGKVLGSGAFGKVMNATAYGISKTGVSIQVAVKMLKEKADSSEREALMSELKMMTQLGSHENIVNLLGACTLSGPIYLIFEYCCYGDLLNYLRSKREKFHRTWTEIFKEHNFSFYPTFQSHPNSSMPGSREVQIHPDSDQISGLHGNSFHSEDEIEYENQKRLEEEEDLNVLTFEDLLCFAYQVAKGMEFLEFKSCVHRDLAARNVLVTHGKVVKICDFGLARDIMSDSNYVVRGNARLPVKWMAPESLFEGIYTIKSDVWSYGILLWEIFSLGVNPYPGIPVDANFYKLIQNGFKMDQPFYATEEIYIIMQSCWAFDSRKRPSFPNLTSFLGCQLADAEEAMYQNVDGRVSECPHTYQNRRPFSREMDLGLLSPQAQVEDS

MOLM-13 [16] = experiment: Antitumour activity against human MOLM13 cells xenografted in NOD/SCID mouse assessed as tumour growth inhibition at 1 mg/kg, po qd for 10 days measured every two days during compound dosing by caliper method relative to control; assay type: functional; settings: MOLM-13, po, read-out: TGI
MOLM-13 [17] = experiment: Cell cycle arrest in human MOLM13 cells assessed as accumulation at G0/G1 phase at 10 nM after 24 hrs by propidium iodide staining-based flow cytometric analysis (reference value: 44.53%); assay type: functional
MOLM-13 [18] = experiment: Cell cycle arrest in human MOLM13 cells assessed as accumulation at G2/M phase at 1 nM after 24 hrs by propidium iodide staining-based flow cytometric analysis (reference value: 13.52%); assay type: functional
MOLM-13 [19] = experiment: Induction of apoptosis in human MOLM13 cells assessed as late apoptotic cells at 100 nM after 48 hrs by Annexin V/propidium iodide staining based flow cytometry (reference value: 5.52%); assay type: functional
MOLM-13 [20] = experiment: Cell cycle arrest in human MOLM13 cells assessed as accumulation at G0/G1 phase at 1 nM after 24 hrs by propidium iodide staining-based flow cytometric analysis (reference value: 44.53%); assay type: functional
MOLM-13 [21] = experiment: Antitumour activity against human MOLM13 cells xenografted in NOD/SCID mouse assessed as tumour growth inibition at 10 mg/kg, po qd for 10 days measured every two days during compound dosing by caliper method relative to control; assay type: functional; settings: MOLM-13, po, read-out: TGI

Tmax [3]: 45 min | Kd [6]: 10.2 nM | fold change (FC) [8]: 0 | Kd [10]: 2.37 nM | Kd [14]: 2.48 nM | IC50 [15]: 7 nM
Structure (SMILES): C=CCn1cc(-c2ccc(NC(=O)Nc3cc(C(C)(C)C)on3)cc2)c2c(N)ncnc21
viability at 0.001 µM (MOLM-13 [1]): 85% | Activity (MV4-11 [2]): 0.36% | inhibition in vivo at 10 mg/kg (MV4-11 [4]): 100% | fold change (FC) (Homo sapiens): 0.12 | inhibition in vivo at 3 mg/kg (MV4-11 [5]): 98.2% | TGI (MOLM-13 [7]): Dose-dependent effect | Activity (MOLM-13 [9]): 0.4% | Activity (MV4-11 [11]): 2.56% | Activity (MV4-11 [12]): 12.7% | Activity (MV4-11 [13]): 87.11% | inhibition in vivo at 1 mg/kg (MOLM-13 [16]): 77.9% | Activity (MOLM-13 [17]): 94.62% | Activity (MOLM-13 [18]): 11% | Activity (MOLM-13 [19]): 21.5% | Activity (MOLM-13 [20]): 53.77% | inhibition in vivo at 10 mg/kg (MOLM-13 [21]): 96%
